In the supplement of paper PMC10307832:

What was measured:
Assay in all cases: relative viability (nuclei count vs DMSO), 5 days (fraction); higher = more cells survive
A-427 = test system: A-427
Summary of the method: (§1)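 Values are medians from duplicate plates. Each reflects relative viability, defined as the nuclei count of treated wells over that of vehicle wells. Lung cancer cell lines in 1536-well plates were pin-tool dosed one day after seeding with one drug alone or with a fixed anchor-drug dose plus five library-drug doses (not always all listed) in √10 steps, then fixed, stained and imaged at 4× after 5 days.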

A549 = test system: A549
Summary of the method: as §1

CAL-12T = test system: CAL-12T
Summary of the method: as §1

Calu-6 = test system: Calu-6
Summary of the method: as §1

EBC-1 = test system: EBC-1
Summary of the method: as §1

IA-LM = test system: IA-LM
Summary of the method: as §1

LK-2 = test system: LK-2
Summary of the method: as §1

NCI-H1299 = test system: NCI-H1299
Summary of the method: as §1

NCI-H1650 = test system: NCI-H1650
Summary of the method: as §1

NCI-H1703 = test system: NCI-H1703
Summary of the method: as §1

NCI-H1734 = test system: NCI-H1734
Summary of the method: as §1

NCI-H2009 = test system: NCI-H2009
Summary of the method: as §1

UMC-11 = test system: UMC-11
Summary of the method: as §1

Compound `COc1nc(C)cnc1NS(=O)(=O)c1cccnc1-c1ccc(-c2nnco2)cc1` [Zibotentan] + CS(=O)(=O)CCNCc1ccc(-c2ccc3ncnc(Nc4ccc(OCc5cccc(F)c5)c(Cl)c4)c3c2)o1 [Lapatinib] (partner 2 µM) has a relative viability (A-427; first compound 0.08 µM) of 1.08, a relative viability (A-427; first compound 0.253 µM) of 1.06 and a relative viability (A-427; first compound 0.8 µM) of 1.05. The relative viability (A-427; first compound 2.53 µM) was 0.984, the relative viability (A549; first compound 0.08 µM) was 1.03 and the relative viability (A549; first compound 0.253 µM) was 1.01. For the same compound, the relative viability (A549; first compound 0.8 µM) was 1.05, the relative viability (A549; first compound 2.53 µM) was 1.12 and the relative viability (CAL-12T; first compound 0.08 µM) was 0.606. The relative viability (CAL-12T; first compound 0.8 µM) was 0.55, the relative viability (CAL-12T; first compound 2.53 µM) was 0.652 and the relative viability (Calu-6; first compound 0.08 µM) was 1.02. For the same compound, the relative viability (Calu-6; first compound 0.253 µM) was 1.06, the relative viability (Calu-6; first compound 0.8 µM) was 1.16 and the relative viability (Calu-6; first compound 2.53 µM) was 1.14. It also gave a relative viability (EBC-1; first compound 0.08 µM) of 0.235, a relative viability (EBC-1; first compound 0.253 µM) of 0.222 and a relative viability (EBC-1; first compound 0.8 µM) of 0.222. It also gave a relative viability (EBC-1; first compound 2.53 µM) of 0.2, a relative viability (IA-LM; first compound 0.08 µM) of 0.68 and a relative viability (IA-LM; first compound 0.253 µM) of 0.808. For the same compound, the relative viability (IA-LM; first compound 0.8 µM) was 0.9, the relative viability (IA-LM; first compound 2.53 µM) was 0.847 and the relative viability (LK-2; first compound 0.08 µM) was 1.02. It also gave a relative viability (LK-2; first compound 0.253 µM) of 0.885, a relative viability (LK-2; first compound 0.8 µM) of 0.917 and a relative viability (LK-2; first compound 2.53 µM) of 0.986. For the same compound, the relative viability (NCI-H1299; first compound 0.08 µM) was 0.989, the relative viability (NCI-H1299; first compound 0.253 µM) was 0.906 and the relative viability (NCI-H1299; first compound 0.8 µM) was 0.959. It also gave a relative viability (NCI-H1299; first compound 2.53 µM) of 0.928, a relative viability (NCI-H1650; first compound 0.08 µM) of 0.732 and a relative viability (NCI-H1650; first compound 0.8 µM) of 0.781. For the same compound, the relative viability (NCI-H1650; first compound 2.53 µM) was 0.813, the relative viability (NCI-H1703; first compound 0.08 µM) was 0.968 and the relative viability (NCI-H1703; first compound 0.253 µM) was 0.894. For the same compound, the relative viability (NCI-H1703; first compound 0.8 µM) was 1.24, the relative viability (NCI-H1703; first compound 2.53 µM) was 0.511 and the relative viability (NCI-H1734; first compound 0.08 µM) was 1.2. The relative viability (NCI-H1734; first compound 0.253 µM) was 1.04, the relative viability (NCI-H1734; first compound 0.8 µM) was 0.996 and the relative viability (NCI-H1734; first compound 2.53 µM) was 1.19. It also gave a relative viability (NCI-H2009; first compound 0.08 µM) of 0.921, a relative viability (NCI-H2009; first compound 0.253 µM) of 0.82 and a relative viability (NCI-H2009; first compound 0.8 µM) of 1. It also gave a relative viability (NCI-H2009; first compound 2.53 µM) of 1.02, a relative viability (UMC-11; first compound 0.08 µM) of 0.919 and a relative viability (UMC-11; first compound 0.253 µM) of 0.86. The relative viability (UMC-11; first compound 0.8 µM) was 0.967 and the relative viability (UMC-11; first compound 2.53 µM) was 1.06.
